The values that follow come from patent publication EP0326331B1, “Substituted quinolines and cinnolines” (Dow AgroSciences LLC, priority 1988, dated 1989).

What all share (format): in vivo
Data set [1] concerns Pyricularia oryzae (rice blast). Briefly: whole plant or invertebrate. Particulars: disease control rating, foliar spray on rice, 400 ppm (+++ at 100 ppm).
In data set [2] the test system is southern armyworm (Spodopetra eridania Cramer). Briefly: Mite/insect screen, SAW. Particulars: percent mortality, SAW; for mortality at 200 ppm / mortality at 400 ppm: Spodoptera eridania, read-out: SAW RESULTS %; for mortality at 200 ppm: SM & MA RATE 200 PPM. In outline:
(§1)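 Compounds dissolved in 50:50 acetone/alcohol containing sulfonate/nonionic emulsifier blends, then diluted with water to the indicated concentrations. Leaves sprayed on both surfaces to runoff at 10 psi and dried one hour. Percent mortality scored after standard exposure periods.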

In data set [3] the test system is melon aphids (Aphis gossypii Glover). Briefly: Mite/insect screen, MA. To be noted: percent mortality, SAW; for mortality at 200 ppm / mortality at 400 ppm: Aphis gossypii, read-out: MA RESULTS %; for mortality at 200 ppm: SM & MA RATE 200 PPM. An outline of the steps: as §1
Data set [4] has as its system Pseudoperonospora cubensis (downy mildew). The data set can be described thus: Test 1 greenhouse foliar spray screen, downy mildew on squash. To be noted: disease control rating, foliar spray on squash, 400 ppm (+++ at 100 ppm).
Data set [5] concerns Cercospora beticola (leaf spot). Briefly: Test 1 greenhouse foliar spray screen, leaf spot on sugar beet. Particulars: disease control rating, foliar spray on sugar beet, 400 ppm (+++ at 100 ppm).
Data set [6] concerns Septoria tritici (leaf blotch). Briefly: Test 1 greenhouse foliar spray screen, leaf blotch on wheat. Particulars: disease control rating, foliar spray on wheat, 400 ppm (+++ at 100 ppm).
Data set [7] has as its system Botrytis cinerea (gray mold). Briefly: Test 1 greenhouse foliar spray screen, gray mold on grape berries. Particulars: disease control rating, spray on grape berries, 400 ppm (+++ at 100 ppm).
In data set [8] the test system is Venturia inaequalis (apple scab). The data set can be described thus: Test 1 greenhouse foliar spray screen, apple scab on apple seedling. Particulars: disease control rating, foliar spray on apple seedling, 400 ppm (+++ at 100 ppm).
A further data set deals with corn rootworm. The data set can be described thus: Mite/insect screen, CRW. To be noted: percent mortality; for mortality at 12 ppm: CRW RATE 12.00 PPM; for mortality at 12 ppm / mortality at 24 ppm: read-out: CRW RESULTS %. In outline:
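Compounds were dissolved in 50:50 acetone/alcohol containing sulfonate/nonionic emulsifier blends (23 g/L plus 13 g/L), then diluted with water to the test concentrations. Percent mortality was scored after standard exposure periods.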

Data set [9] deals with Puccinia recondita tritici (leaf rust). Briefly: Test 1 greenhouse foliar spray screen, leaf rust on wheat. To be noted: disease control rating, foliar spray on wheat, 400 ppm (+++ at 100 ppm).
Data set [10] deals with Erysiphe graminis tritici (powdery mildew). Briefly: Test 1 greenhouse foliar spray screen, powdery mildew on wheat. Particulars: disease control rating, foliar spray on wheat, 400 ppm (+++ at 100 ppm).
The test system of data set [11] is Twospotted spider mites (Tetranychus urticae Koch). Briefly: Mite/insect screen, SM. To be noted: percent mortality, SAW; for mortality at 200 ppm / mortality at 400 ppm: Tetranychus urticae, read-out: SM RESULTS %; for mortality at 200 ppm: SM & MA RATE 200 PPM. In outline: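 Activity is expressed as percent mortality at the indicated spray concentrations. Plants are sprayed to runoff on upper and lower leaf surfaces with aqueous dilutions of an acetone/alcohol emulsifiable formulation, then dried for one hour.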

Regarding `COc1ccc(CCNc2ccnc3c(F)cccc23)cc1` [Example 36, 8-fluoro-N-[2-(4-methoxyphenyl)ethyl]-4-quinolinamine], in data set [1], the “RICE BLAST” value is “+++ (90-100% control at 100 ppm)”. Further, the mortality at 200 ppm in [2], in [3] and in [11] was 0% in each case. The mortality at 400 ppm in data set [2] (SM & MA RATE 400 PPM), in data set [3] (SM & MA RATE 400 PPM) and in data set [11] (SM & MA RATE 400 PPM) was 0% each time. Further, the “SAW RESULTS %” value in [2] (SM & MA RATE 400 PPM) was found to be 0%. Moreover, the “MA RESULTS %” value in data set [3] (SM & MA RATE 400 PPM) was 0%. In data set [4], the “DOWN MDEW” value is “+++ (90-100% control at 100 ppm)”. Further, the “LEAF SPOT” value in data set [5] was “+++ (90-100% control at 100 ppm)”. For the same compound, the “LEAF BLOT” value in [6] was “+++ (90-100% control at 100 ppm)”. Further, the “GRAY MOLD” value in data set [7] is reported as “- (0-19% control at 400 ppm)”. Moreover, in [8], the “APPL SCAB” value is given as “- (0-19% control at 400 ppm)”. Further, the mortality at 12 ppm in the data set with corn rootworm was determined as 0%. In the data set with corn rootworm (CRW RATE 24.00 PPM), the “CRW RESULTS %” value is 0%. The mortality at 24 ppm in the data set with corn rootworm (CRW RATE 24.00 PPM) was determined as 0%. In addition, the “LEAF RUST” value in data set [9] is reported as “+++ (90-100% control at 100 ppm)”. The “POWD MDEW” value in data set [10] is reported as “+ (20-89% control at 400 ppm)”. Besides, in [11] (SM & MA RATE 400 PPM), the “SM RESULTS %” value is 0%.
As to `COc1ccc(CCNc2ccnc3c(F)cccc23)cc1OC` [Example 38, N-[2-(3,4-dimethoxyphenyl)ethyl]-8-fluoro-4-quinolinamine], in data set [1], the “RICE BLAST” value is “- (0-19% control at 400 ppm)”. Moreover, the mortality at 200 ppm in data set [2], in data set [3] and in [11] was 0% in each case. In addition, the mortality at 400 ppm in data set [2] (SM & MA RATE 400 PPM), in data set [3] (SM & MA RATE 400 PPM) and in data set [11] (SM & MA RATE 400 PPM) was 0% throughout. Besides, the “DOWN MDEW” value in data set [4] is reported as “+++ (90-100% control at 100 ppm)”. In addition, in data set [5], the “LEAF SPOT” value was “+ (20-89% control at 400 ppm)”. Also, the “LEAF BLOT” value in data set [6] is “- (0-19% control at 400 ppm)”. The “GRAY MOLD” value in data set [7] is on record as “- (0-19% control at 400 ppm)”. Moreover, in data set [8], the “APPL SCAB” value is on record as “- (0-19% control at 400 ppm)”. Besides, the mortality at 12 ppm in the data set with corn rootworm was found to be 0%. The mortality at 24 ppm in the data set on corn rootworm (CRW RATE 24.00 PPM) was found to be 0%. Moreover, the “LEAF RUST” value in [9] is “++ (90-100% control at 400 ppm)”. In data set [10], the “POWD MDEW” value is listed as “+ (20-89% control at 400 ppm)”.
`Fc1cc(F)c2nccc(NCCc3ccc(Cl)cc3)c2c1` [Example 41, N-[2-(4-chlorophenyl)ethyl]-6,8-difluoro-4-quinolinamine]: the “RICE BLAST” value in data set [1] is given as “++ (90-100% control at 400 ppm)”. Further, the values for the mortality at 200 ppm in [2], in data set [3] and in [11] were 80%, 0% and 0%, respectively. Besides, the mortality at 400 ppm in data set [2] (SM & MA RATE 400 PPM) is 40%; in [3] (SM & MA RATE 400 PPM), 0%; in data set [11] (SM & MA RATE 400 PPM), 0%. The “DOWN MDEW” value in [4] was “++ (90-100% control at 400 ppm)”. The “LEAF SPOT” value in data set [5] is “+++ (90-100% control at 100 ppm)”. In data set [6], the “LEAF BLOT” value was “+ (20-89% control at 400 ppm)”. Further, in data set [7], the “GRAY MOLD” value is given as “- (0-19% control at 400 ppm)”. In addition, the “APPL SCAB” value in data set [8] was “- (0-19% control at 400 ppm)”. For the same compound, in the data set on corn rootworm, the mortality at 12 ppm turned out to be 0%. Also, the mortality at 24 ppm in the data set with corn rootworm (CRW RATE 24.00 PPM) was determined as 0%. Also, the “LEAF RUST” value in data set [9] is “+++ (90-100% control at 100 ppm)”. Also, in data set [10], the “POWD MDEW” value is reported as “+ (20-89% control at 400 ppm)”.
In the case of `COc1ccc(CCNc2ccnc3cc(C(F)(F)F)ccc23)cc1` [Example 42, N-[2-(4-methoxyphenyl)ethyl]-7-(trifluoromethyl)-4-quinolinamine], in data set [1], the “RICE BLAST” value is “+ (20-89% control at 400 ppm)”. Moreover, the mortality at 200 ppm in data set [2], in [3] and in [11] was 0% throughout. Also, the mortality at 400 ppm in data set [2] (SM & MA RATE 400 PPM), in data set [3] (SM & MA RATE 400 PPM) and in data set [11] (SM & MA RATE 400 PPM) was 0% in each case. For the same compound, the “DOWN MDEW” value in data set [4] was “+++ (90-100% control at 100 ppm)”. Also, the “LEAF SPOT” value in [5] was “+++ (90-100% control at 100 ppm)”. Also, the “LEAF BLOT” value in data set [6] is “- (0-19% control at 400 ppm)”. Besides, the “GRAY MOLD” value in data set [7] is given as “- (0-19% control at 400 ppm)”. Besides, in [8], the “APPL SCAB” value is on record as “- (0-19% control at 400 ppm)”. For the same compound, the mortality at 12 ppm in the data set on corn rootworm worked out at 0%. Further, the mortality at 24 ppm in the data set with corn rootworm (CRW RATE 24.00 PPM) amounted to 0%. Further, the “LEAF RUST” value in data set [9] is listed as “++ (90-100% control at 400 ppm)”. Also, the “POWD MDEW” value in [10] was “+++ (90-100% control at 100 ppm)”.
